For 14 molecules, inhibition results are on record in patent US20140171431A1, “AZOLE HETEROCYCLIC COMPOUND, PREPARATION METHOD, PHARMACEUTICAL COMPOSITION AND USE” (priority 2011, published 2014).

Test [1] has as its target T1, Lp-PLA2 in rabbit serum (Oryctolagus cuniculus, UniProt G1SE06).
T1 construct: from tissue; host or cells: rabbit serum
T1 sequence (G1SE06 22-423): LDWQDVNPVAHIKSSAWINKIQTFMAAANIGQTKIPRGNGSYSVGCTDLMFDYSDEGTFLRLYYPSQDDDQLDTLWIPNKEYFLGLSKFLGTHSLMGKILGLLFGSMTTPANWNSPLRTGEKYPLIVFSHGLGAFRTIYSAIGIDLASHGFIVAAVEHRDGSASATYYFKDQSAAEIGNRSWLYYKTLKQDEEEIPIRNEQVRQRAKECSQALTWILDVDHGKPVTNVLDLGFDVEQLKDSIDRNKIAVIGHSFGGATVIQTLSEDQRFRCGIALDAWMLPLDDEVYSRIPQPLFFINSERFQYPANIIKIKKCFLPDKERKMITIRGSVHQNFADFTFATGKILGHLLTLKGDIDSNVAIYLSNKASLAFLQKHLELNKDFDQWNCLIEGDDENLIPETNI
Briefly: In vitro inhibitory activity towards the enzyme Lp-PLA2 in rabbit serum, [3H]PAF substrate. Format: biochemical. The conditions noted are these: for inhibition at 0.1 µM: 100 nM. The method, then: (§1) The activities of compounds were measured using [^3H] labeled platelet activating factor ([^3H]PAF, Perkinelmer, Lot NET910) as the substrate. The reaction was carried out in a system containing 50 mmol/L HEPES and 150 mmol/L NaCl (pH 7.4) in a total volume of 200 μl. First, 10 μL rabbit serum and 10 μl DMSO solution of the test compound were added to the system and preincubated for 10 min at 37° C. Then 20 nM [^3H]PAF was added as listed in table 1 to start the reaction and incubated for a further 10 min at 37° C. After that, 600 μl of CHCl3/MeOH (2:1) was added and the resulting mixture was vortex mixed and the reaction was stopped. After settled for a while, the mixture was centrifugated at 12000×g for 15 min. The supernatant was transferred to a new tube and 200 μl of CHCl3 was added. The mixture was mixed by vortexing and then settled or centrifugated for 2 min. A 100 μl portion of the supernatant was then collected for radioactivity intensity measurement.
The inhibition rate was determined by the following equation:
Inhibitory rate (%)=1−(DPMcompound tube−DPMblank tube)/(DPMcontrol tube−DPMblank tube)*100%
(Note: DPM is radioactivity intensity unit.)

The target of test [2] is T2, Lp-PLA2 in human serum (Homo sapiens, UniProt Q13093).
T2 construct: from tissue
T2 sequence (Q13093 22-441): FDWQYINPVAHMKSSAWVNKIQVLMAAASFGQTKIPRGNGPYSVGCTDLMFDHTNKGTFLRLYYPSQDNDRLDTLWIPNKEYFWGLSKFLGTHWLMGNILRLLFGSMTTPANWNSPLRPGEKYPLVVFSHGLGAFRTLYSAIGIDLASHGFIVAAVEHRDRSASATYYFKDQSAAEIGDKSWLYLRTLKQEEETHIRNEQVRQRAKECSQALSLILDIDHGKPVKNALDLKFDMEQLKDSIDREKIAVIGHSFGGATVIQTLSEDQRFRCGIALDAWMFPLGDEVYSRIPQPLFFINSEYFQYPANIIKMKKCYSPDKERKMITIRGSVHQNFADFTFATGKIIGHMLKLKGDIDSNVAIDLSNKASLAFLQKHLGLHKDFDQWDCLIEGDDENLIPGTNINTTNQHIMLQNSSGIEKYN
Description: In vitro inhibitory activity towards the enzyme Lp-PLA2 in human serum, [3H]PAF substrate. In kind it is biochemical. The conditions noted are these: for inhibition at 0.01 µM: 10 nM; for inhibition at 0.1 µM: 100 nM. The method, then:
as §1, with “mmol/l” for “mmol/L”, “human plasma” for “rabbit serum”, “was” for “was vortex”, “with vortex.” for “and the reaction was stopped.”, “added and mixed by vortexing.” for “added.”, “was” for “was mixed by vortexing and then”

Setting [3] is: rabbit serum, read-out: inhibition, %.
Setting [4] is: human serum, read-out: inhibition, %.
Setting [5] is: read-out: inhibitory rate towards the human serum derived Lp-PLA2 enzyme.

Read-outs that look alike come from different tables or passages of the source. A value given as a limit tells only on which side of the number the result lay.

As for `CCN1CCCC1CNCc1nnc(Cn2c(SCc3ccc(F)cc3)nc(=O)c3c2CCC3)n1Cc1ccc(-c2ccc(C(F)(F)F)cc2)cc1` (racemic) [Example 83, (±)-1-((5-(((1-ethylpyrrolidin-2-yl)methylamino)methyl)-4-((4′-(trifluoromethyl)biphenyl-4-yl)methyl)-4H-1,2,4-triazol-3-yl)methyl)-2-(4-fluorobenzylthio)-6,7-dihydro-1H-cyclopenta[d]pyrimidin-4(5H)-one], the inhibition at 0.1 µM in test [1] (setting [3]) is 93%; in test [1] (read-out: inhibitory rate towards the rabbit serum derived Lp-PLA2 enzyme) it was more than 90%; in test [2] (human serum), 95%. Besides, the inhibition at 0.01 µM was 81% in test [2] (setting [4]) and more than 80% in test [2] (setting [5]).
Turning to `Cc1cnc(Cn2cc(Cc3cnn(C)c3)c(=O)nc2SCc2ccc(F)cc2)n1Cc1ccc(-c2ccc(C(F)(F)F)cc2)cc1` [Example 41, 2-(4-fluorobenzylthio)-1-((5-methyl-1-((4′-(trifluoromethyl)biphenyl-4-yl)methyl)-1H-imidazol-2-yl)methyl)-5-((1-methyl-1H-pyrazol-4-yl)methyl)pyrimidin-4(1H)-one], the inhibition at 0.1 µM in test [1] (setting [3]) amounted to 12.6%. This molecule showed an inhibition at 1 µM in test [1] (rabbit serum) of 64.9%.
On to `CCN(CC)Cc1cnc(Cn2c(SCc3ccc(F)cc3)nc(=O)c3c2CCC3)n1Cc1ccc(-c2ccc(C(F)(F)F)cc2)cc1` [Example 42, 1-((5-((diethylamino)methyl)-1-((4′-(trifluoromethyl)biphenyl-4-yl)methyl)-1H-imidazol-2-yl)methyl)-2-(4-fluorobenzylthio)-6,7-dihydro-1H-cyclopenta[d]pyrimidin-4(5H)-one], for which the inhibition at 0.1 µM in test [1] (setting [3]) was found to be 88.3%; in test [2] (human serum) it was 92%. For the same molecule, the inhibition at 1 µM in test [1] (rabbit serum) stood at 97.7%. For the same molecule, the inhibition at 0.01 µM in test [2] (setting [4]) amounted to 75%.
On to `O=c1nc(SCc2ccc(F)cc2)n(Cc2ncc(CN3CCCC3)n2Cc2ccc(-c3ccc(C(F)(F)F)cc3)cc2)c2c1CCC2` [Example 43, 2-(4-fluorobenzylthio)-1-((5-(pyrrolidin-1-ylmethyl)-1-((4′-(trifluoromethyl)biphenyl-4-yl)methyl)-1H-imidazol-2-yl)methyl)-6,7-dihydro-1H-cyclopenta[d]pyrimidin-4(5H)-one], for which the inhibition at 0.1 µM in test [1] (setting [3]) came to 78.6%; in test [2] (human serum), 92%. For the same molecule, the inhibition at 0.01 µM in test [2] (setting [4]) was 67%.
On the same counts, the results for `CN(Cc1ccc(F)cc1)Cc1cnc(Cn2c(SCc3ccc(F)cc3)nc(=O)c3c2CCC3)n1Cc1ccc(-c2ccc(C(F)(F)F)cc2)cc1` [Example 44] are 89.1%, 95% and 69%.
With `O=c1nc(SCc2ccc(F)cc2)n(Cc2ncc(C[N+]3(Cc4ccc(F)cc4)CCCC3)n2Cc2ccc(-c3ccc(C(F)(F)F)cc3)cc2)c2c1CCC2` [Example 49, 1-(4-fluorobenzyl)-1-(2-((2-(4-fluorobenzylthio)-4-oxo-4,5,6,7-tetrahydro-1H-cyclopenta[d]pyrimidin-1-yl)methyl)-1-((4′-(trifluoromethyl)biphenyl-4-yl)methyl)-1H-imidazol-5-yl)methyl)pyrrolidinium bromide], the inhibition at 0.01 µM in test [2] (setting [4]) is 97%; in test [2] (setting [5]), more than 80%. This molecule yielded an inhibition at 0.1 µM in test [2] (human serum) of 98%.
As to `CCOC(=O)c1cnc(Cn2c(SCc3ccc(F)cc3)nc(=O)c3c2CCC3)n1Cc1ccc(-c2ccc(C(F)(F)F)cc2)cc1` [Example 50, ethyl 2-((2-(4-fluorobenzylthio)-4-oxo-4,5,6,7-tetrahydro-1H-cyclopenta[d]pyrimidin-1-yl)methyl)-1-((4′-(trifluoromethyl)biphenyl-4-yl)methyl)-1H-imidazole-5-carboxylate], the inhibition at 0.1 µM in test [1] (setting [3]) turned out to be 57%.
As for `O=c1nc(SCc2ccc(F)cc2)n(Cc2nc3ccccc3n2Cc2ccc(-c3ccc(C(F)(F)F)cc3)cc2)c2c1CCC2` [Example 53, 2-(4-fluorobenzylthio)-1-((1-((4′-(trifluoromethyl)biphenyl-4-yl)methyl)-1H-benzo[d]imidazol-2-yl)methyl)-6,7-dihydro-1H-cyclopenta[d]pyrimidin-4(5H)-one], in test [1] (setting [3]), the inhibition at 0.1 µM turned out to be 43.2%. For the same molecule, in test [1] (rabbit serum), the inhibition at 1 µM stood at 90.1%.
On the same counts, the results for `Cn1cc(Cc2cn(Cc3nc4ccccc4n3Cc3ccc(-c4ccc(C(F)(F)F)cc4)cc3)c(SCc3ccc(F)cc3)nc2=O)cn1` [Example 54, 2-(4-fluorobenzylthio)-5-((1-methyl-1H-pyrazol-4-yl)methyl)-1-((1-((4′-(trifluoromethyl)biphenyl-4-yl)methyl)-1H-benzo[d]imidazol-2-yl)methyl)pyrimidin-4 (1H)-one] are 35.9% and 88.8%.
Take `CCn1c(Cn2c(SCc3ccc(F)cc3)nc(=O)c3c2CCC3)nnc1-c1ccc(-c2ccc(C(F)(F)F)cc2)cc1` [Example 55, 1-((4-ethyl-5-(4′-(trifluoromethyl)biphenyl-4-yl)-4H-1,2,4-triazol-3-yl)methyl)-2-(4-fluorobenzylthio)-6,7-dihydro-1H-cyclopenta[d]pyrimidin-4(5H)-one]: in test [1] (rabbit serum), the inhibition at 1 µM turned out to be 21% and the inhibition at 10 µM was 33.6%.
For `CCn1c(Cn2cc(Cc3cnn(C)c3)c(=O)nc2SCc2ccc(F)cc2)nnc1-c1ccc(-c2ccc(C(F)(F)F)cc2)cc1` [Example 58, 1-((4-ethyl-5-(4′-(trifluoromethyl)biphenyl-4-yl)-4H-1,2,4-triazol-3-yl)methyl)-2-(4-fluorobenzylthio)-5-((1-methyl-1H-pyrazol-4-yl)methyl)pyrimidin-4 (1H)-one] the same measures were 32% and 94.8%.
For `CCn1c(CCCc2ccccc2)nnc1Cn1c(SCc2ccc(F)cc2)nc(=O)c2c1CCC2` [Example 59, 1-((4-ethyl-5-(3-phenylpropyl)-4H-1,2,4-triazol-3-yl)methyl)-2-(4-fluorobenzylthio)-6,7-dihydro-1H-cyclopenta[d]pyrimidin-4(5H)-one], the inhibition at 10 µM in test [1] (rabbit serum) amounted to 9.3%.
Same read-out and setting: the figure for `CCn1c(Cc2ccc(-c3ccc(C(F)(F)F)cc3)cc2)nnc1Cn1c(SCc2ccc(F)cc2)nc(=O)c2c1CCC2` [Example 60, 1-((4-ethyl-5-((4′-(trifluoromethyl)biphenyl-4-yl)methyl)-4H-1,2,4-triazol-3-yl)methyl)-2-(4-fluorobenzylthio)-6,7-dihydro-1H-cyclopenta[d]pyrimidin-4(5H)-one] is 40%.
Take `CC(C)(C(=O)O)N1CCN(Cc2nnc(Cn3c(SCc4ccc(F)cc4)nc(=O)c4c3CCC4)n2Cc2ccc(-c3ccc(C(F)(F)F)cc3)cc2)CC1` [Example 89, 2-(4-((5-((2-(4-fluorobenzylthio)-4-oxo-4,5,6,7-tetrahydro-1H-cyclopenta[d]pyrimidin-1-yl)methyl)-4-((4′-(trifluoromethyl)biphenyl-4-yl)methyl)-4H-1,2,4-triazol-3-yl)methyl)piperazin-1-yl)-2-methylpropanoic acid]: the inhibition at 0.1 µM in test [1] (setting [3]) came out at 13.4%.
